# Measured values taken from US20230233515A1, “PHOTODYNAMIC ANTI-GRAM-POSITIVE BACTERIAL ACTIVITY OF PHARMACEUTICAL-GRADE ROSE BENGAL” (priority 2021, published 2023).
# Where “and” joins values, the source holds several entries; their conditions need not be identical. Equal entries are not always repeated. Where two headings read alike, the source gives them in different places.
# Key:
# [1] = system: M.smegmatis 607™ (wild-type); test: MIC against M.smegmatis, dark; assay type: cell-based, Mycobacterium smegmatis; details: dark condition, triplicate
# [2] = system: M.smegmatis 607™ (RB mutant); assay type: cell-based, Mycobacterium smegmatis; details: for MIC (µg/mL) against M.smegmatis 607™ (RB mutant): triplicate
# [3] = system: Enterococcus faecalis; test: MIC, broth dilution; assay type: cell-based; details: drug-susceptible and drug-resistant incl. vancomycin-resistant strains; entries 17-21
# Excerpt: (§1) All studies were done in triplicate. […] “g” = MIC was not determined.
# [4] = system: Gram-negative bacteria; test: MIC, broth dilution; assay type: cell-based; details: dark condition; all Gram-negative bacteria of Table 1, entries 31-47
# Excerpt: as §1
# [5] = system: Gram-positive Bacillus spp.; test: MIC, broth dilution; assay type: cell-based; details: illumination; entries 1-3 of Table 1
# Excerpt: as §1
# [6] = system: Gram-positive bacteria; test: MIC, broth dilution; assay type: cell-based
# Excerpt: as §1
# [7] = system: Mycobacterium spp.; test: MIC, broth dilution; assay type: cell-based
# Excerpt: as §1
# [8] = system: Staphylococcus aureus; test: MIC, broth dilution; assay type: cell-based
# Excerpt: as §1
# [9] = system: S.cerevisiae; test: Growth inhibition of yeast; assay type: cell-based; details: Saccharomyces cerevisiae; fluorescent light; read-out: concentration giving 50% growth inhibition
# Excerpt: as §1
# (§2) All studies were done in triplicate. […] MBC: minimum bactericidal concentrations (µg/mL).
# [10] = system: B.subtilis, B.cereus, and S.aureus; test: MIC, agar dilution; assay type: cell-based; details: fluorescent light; entries 1-4 in Table 2; read-out: MIC (growth inhibition), agar dilution
# Excerpt: as §2
# We observed that under the illumination conditions the MIC values of RB determined by the agar dilution method are lower than those determined by the broth dilution method (Table 1).
# [11] = system: biofilms of S.aureus 6508; test: Anti-biofilm assay; assay type: cell-based, Staphylococcus aureus; details: for viable bacteria in biofilm: dark condition
# Method: We applied linezolid as a positive control at very high concentration of 600 µg/mL (>100xMIC for the planktonic cells) in our biofilm assays.
# The biofilms were generated on 12-well plates by incubating each bacterium for five days. The planktonic bacteria in the culture media were gently removed, and fresh media were placed. […] An aliquot of each culture was diluted (x10,000 or x100,000) on agar plates at 37° C. for 24 h. CFU/mL was counted.
# [12] = system: biofilms of S.aureus 71080 (VRS8); test: Anti-biofilm assay; assay type: cell-based, Staphylococcus aureus; details: fluorescent light
# Method: Here, we examined efficacy of RB against biofilms of a drug-susceptible S.aureus 6508™, and drug-resistant S.aureus 71080 (VRS8) and E.faecium NR-32065 under the florescent light and dark conditions.
# The biofilms were generated on 12-well plates by incubating each bacterium for five days. The planktonic bacteria in the culture media were gently removed, and fresh media were placed. […] An aliquot of each culture was diluted (x10,000 or x100,000) on agar plates at 37° C. for 24 h. CFU/mL was counted [47, 69].
# [13] = system: air-exposed biofilms of S.aureus BAA-44™; test: Air-exposed biofilms on agar plate; assay type: cell-based, Staphylococcus aureus; details: for CFU/mL (Dilution 5.8 × 10^11): treated at 0 and 30 min, 1 h, 17W fluorescent light, counted after 24 h at 37° C.
# Method: The data of Table 3, below, summarize the effect of RB on air-exposed biofilms of a MRSA, Saureus BAA-44™, under fluorescent light (17 W, 1 h, 0.57 KJ/cm^2). Spraying RB (5.0 µg/mL or 10 µg/mL solution, 250 µL (twice)) and fluorescent light exposure (for 1 h) eradicated significant viable bacteria in the biofilms with a 4-log reduction (determined at a dilution of 5.8×10^9).
# The bacteria (about 1.0x10^4) were spread on an agar plate and incubated in an oven at 37° C. for 2 days. The air-exposed biofilms on an agar plate were treated with PV-10. After 1 h under fluorescent light (0.57 KJ/cm^2), saline (2 mL) was added to the agar surface. The bacterial suspension ([…]) was taken into a sterile tube, and serial dilutions were performed. The diluted sample ([…]) was spread on agar plates and incubated at 37° C. for 24 h CFU/mL were counted.
# [14] = Cytotoxicity with Vero cells under fluorescent light (confluence); details: African green monkey, selectivity index (SI), cytotoxicity versus antibacterial activity, 1 h treatment time
# Method: (§3) FIG. 5 is a graph showing the time in hours (h) for cell confluence at four concentrations of HB-RBf (zero µM, 100 µM, 200 µM and 300 µM) when irradiated under fluorescent light;
# (§4) Cytotoxicity assays for RB in Vero cells were performed in a 24-well plate.
# (§5) Images were collected by AMG EVOS xl transmitted light imaging microscope. […] (5% CO2).
# [15] = system: Vero cells; test: as above; details: fluorescent light; for confluence lost: 200 µM
# Method: as §3, §4, §5
# [16] = Behaviour in water at stomach pH; assay type: physicochemical; details: water solution having the acidic pH value of the human stomach
# Excerpt: For example, the highly acidic gastric environment (pH 1.5-2 in the fasted state; pH 3-6 in the fed state) rises rapidly to about pH 6 in the duodenum and increases along the small intestine to pH 7.4 at the terminal ileum. The pH value in the cecum drops just below pH 6 and again rises in the colon reaching pH 6.7 at the rectum [Hua, Front Pharmacol 11: Article 524 (April 2020)].
# [17] = at the therapeutic concentrations; cited from earlier work
# [18] = system: a S.aureus strain; details: 19.5 µg/mL RB, 10 min visible light, light fluence dose 30 J/cm^2; cited from earlier work
# [19] = system: Staphylococcus epidermidis; test: MIC, broth dilution; details: aerobic condition; entry 16
# Method: (§6) We have reinvestigated the bactericidal activity of pharmaceutical-grade of RB against a battery of Gram-positive and -negative aerobic bacteria including Mycobacterium spp. and a Saccharomyces sp. under different light sources (fluorescence, LED, and sun light) and in a dark condition. Fluorescent light used was 17W (1,647 lumens, 63.8 cm^2) and LED was a 9.5 W (800 lumens, 28.3 cm^2), specifics about which are discussed hereinafter.
# (§7) Minimum inhibitory concentrations (MICs) were determined by broth dilution microplate alamar blue assay or by OD measurement. All compounds were stored in DMSO or saline (1 mg/100 µL concentration). This concentration was used as the stock solution for all MIC studies. Each compound from stock solution was placed in the first well of a sterile 96 well plate and a serial dilution was conducted with the culturing broth (total volume of 10 µL). The bacterial suspension at log phase (190 µL) was added to each well (total volume of 200 µL), and was incubated for 24 h at 37° C.
# [20] = system: Streptococcus salivarius; test: MIC, broth dilution; details: entry 23
# Method: as §6, §7
# [21] = system: Streptococcus pneumoniae; test: MIC, broth dilution; details: entry 24
# Method: as §6, §7
# [22] = system: three E.coli, two Pseudomonas aeruginosa, two Klebsiella pneumoniae, and two Acinetobacter baumannii strains; test: MIC, broth dilution; details: entries 31-39
# Method: as §6, §7
# [23] = system: Bacteroides fragilis; test: MIC, broth dilution; details: anaerobic Gram-negative bacterium
# Excerpt: We have reinvestigated the bactericidal activity of pharmaceutical-grade of RB against a battery of Gram-positive and -negative aerobic bacteria including Mycobacterium spp. and a Saccharomyces sp. under different light sources (fluorescence, LED, and sun light) and in a dark condition. Fluorescent light used was 17W (1,647 lumens, 63.8 cm^2) and LED was a 9.5 W (800 lumens, 28.3 cm^2), specifics about which are discussed hereinafter. In the studies under sunlight through an architectural window, the 96-well plates were placed on the east side of the building (the BSL-2 lab on the 5th floor, College of Pharmacy, University of Tennessee Health Science Center, Memphis, TN, USA) and the growth inhibition studies were performed between 8 AM and 5 PM (on June 18th, 2021).
# Minimum inhibitory concentrations (MICs) were determined by broth dilution microplate alamar blue assay or by OD measurement. All compounds were stored in DMSO or saline (1 mg/100 µL concentration). This concentration was used as the stock solution for all MIC studies. Each compound from stock solution was placed in the first well of a sterile 96 well plate and a serial dilution was conducted with the culturing broth (total volume of 10 µL). […] The absorbance of each well was also measured at 570 and 600 nm via UV-Vis.
# [24] = system: Burkholderia, Salmonella, and Proteus spp.; test: MIC, broth dilution; details: fluorescent or LED lights
# Method: as §6, §7
# [25] = system: S.aureus 6538™; test: Time-kill kinetic assay; details: in 1 minute; 4.6 × 10^8 CFU; fluorescent light
# Method: (§8) Thus, the time-course experiments on these bacteria were conducted under the fluorescent light for 2 h (0-1,130 J/cm^2) at concentrations of about 2 to about 8-fold the MIC (RB). Reference molecules used were linezolid (10 µg/mL) and ciprofloxacin (10 µg/mL) for the Gram-positive bacteria and amikacin (10 µg/mL) and meropenem (10 µg/mL) for the Gram-negative bacterium.
# (§9) Time-kill kinetics assay for antimicrobial agents was performed using CLSI guidelines with a minor modification. The multiple time points in time-kill kinetics assays for RB and the reference molecules were performed. The bacterial culture grown in the broth was diluted to a concentration between 1 × 10^8 and 5.0 × 10^9 CFU/mL.
# (§10) A stock dilution of the antimicrobial test substance was prepared at approximately 2- to about 8-fold the MIC values. The test compounds were inoculated with equal volumes of the specified bacteria placed in a 96-well plate. The microtiter plates were incubated at 37° C. and duration (1-120 min) under the fluorescent light (conditions are summarized in the figure legend). An aliquot of the culture medium was taken from each well and a serial dilution was performed. The diluted culture was incubated at 37° C. and CFU/mL were counted.
# [26] = system: S.aureus BAA-44; test: Time-kill kinetic assay; details: twice the RB MIC; fluorescent light
# Method: as §8, §9, §10
# [27] = system: S.aureus 71080 (VRS8); test: Time-kill kinetic assay; details: twice the RB MIC; fluorescent light
# Method: as §8, §9, §10
# [28] = system: E.faecium NR-32065; test: Time-kill kinetic assay; details: twice the RB MIC; fluorescent light
# Method: as §8, §9, §10
# [29] = system: B.cepacia UCB717; test: Time-kill kinetic assay; details: fluorescent light
# Method: as §8, §9, §10
# [30] = system: Gram-positive and -negative bacteria; test: Time-kill kinetics, general statements
# Method: as §9
# A stock dilution of the antimicrobial test substance was prepared at approximately 2- to about 8-fold the MIC values. The test compounds were inoculated with equal volumes of the specified bacteria placed in a 96-well plate. The microtiter plates were incubated at 37° C. and duration (1-120 min) under the fluorescent light (conditions are summarized in the figure legend). An aliquot of the culture medium was taken from each well and a serial dilution was performed. The diluted culture was incubated at 37° C. and CFU/mL were counted. Bactericidal activity was defined as greater than 3 log-fold decrease in colony forming units [64].
# [31] = system: S.cerevisiae; test: Minimal bactericidal concentration (MBC) assay
# [32] = system: human epidermal keratinocytes (HEKa); test: Cytotoxicity assay with HEKa cells (stratified epithelium, H&E); details: fluorescent light
# Method: In these studies, HEKa cells were differentiated to a stratified squamous epithelium via air-liquid interface; this type of epithelium can be applied as a physiological tissue to study epidermal necrolysis by the treatment of RB.
# Cytotoxicity of PV-10 against Human Epidermal Keratinocytes (HEKa) were evaluated in a hanging cell culture insert in a 24-well plate. HEKa (4x10^5 cells/mL, 0.5 mL) cell suspension) was placed into the insert where the outside of the inserts was filled with EpiGRO™ Complete Culture Media (1.5 mL) [67]. The cell suspension was incubated at 37° C. overnight (about 18 hours).
# The next day, without removing the original medium, an additional 0.5 mL of the medium was added to the inside of each insert and incubated at 37° C. for 2 days. High quality HEKa approached 100% confluence by the third day of submerged culture. On the 4th day, the media was gently aspirated from each insert. The skin cell cultures were maintained at the air/liquid interface.
# The skin culture was incubated at 37° C. for an additional 10 days. During the 10-day incubation, the media was changed every other day and any bubbles were removed from beneath the insert membrane.
# After 25 days of 3D skin culture, approximately 6 to 8 layers of live epithelium were produced. […]
compound,measurement,setting,value
"NC[C@H]1O[C@@H](O[C@H]([C@H]2O[C@@H](n3ccc(=O)[nH]c3=O)[C@H](O)[C@@H]2O)[C@H](NCCCC(=O)NCc2ccc(N3CCC(Oc4ccc(OC(F)(F)F)cc4)CC3)cc2)C(N)=O)[C@H](O)[C@@H]1O [APPB, aminouridyl phenoxypiperidinylbenzyl butanamide]",MIC (µg/mL) against M.smegmatis 607™ (wild-type),[1],0.20 µg/mL
same,susceptibility of the RB-resistant strain to the drug,[2]; dark condition,susceptible
same,MIC (µg/mL) against M.smegmatis 607™ (RB mutant),[2]; dark condition,0.20 µg/mL
"NCC[C@H](O)C(=O)N[C@@H]1C[C@H](N)[C@@H](O[C@H]2O[C@H](CN)[C@@H](O)[C@H](O)[C@H]2O)[C@H](O)[C@H]1O[C@H]1O[C@H](CO)[C@@H](O)[C@H](N)[C@H]1O [Amikacin, amikacin]",MIC,[1]; Mycolicibacterium smegmatis,0.78 µg/mL
same,susceptibility of the RB-resistant strain to the drug,[2]; dark condition,susceptible
"CCc1cc(C(N)=S)ccn1 [Ethionamide, ethionamide]",susceptibility of the RB-resistant strain to the drug,[2],susceptible
"NNC(=O)c1ccncc1 [Isoniazid, isoniazid]",susceptibility of the RB-resistant strain to the drug,[2]; dark condition,cross-resistance
"O=C([O-])c1c(Cl)c(Cl)c(Cl)c(Cl)c1-c1c2cc(I)c(=O)c(I)c-2oc2c(I)c([O-])c(I)cc12.[Na+].[Na+] [RB, 4,5,6,7-tetrachloro-2′,4′,5′,7′-tetraiodo-fluorescein]",MIC (killing concentration),[3],0.39 to 0.78 µg/mL
same,MIC,[4],> 100 µg/mL
same,MIC (killing concentration),[5],0.39 to 0.78 µg/mL
same,MIC,"[6]; dark condition, all Gram-positive bacteria of entries 1-23",25 to 100 µg/mL
same,MIC,"[6]; under illumination conditions (fluorescent, LED), wide range of Gram-positive bacteria, entries 1-23 in Table 1",0.2 to 3.1 µg/mL
same,killing concentration (MIC),[7]; dark conditions,25000 to 50000 µg/mL
same,MIC,"[7]; illuminated conditions, 5 Mycobacterium spp., entries 25-29",12.5 to 25 µg/mL
same,killing concentration (MIC),[7]; illumination conditions,12500 to 25000 µg/mL
same,MIC (killing concentration),"[8]; 7 methicillin-resistant S.aureus (MRSA) strains, fluorescent or LED light",0.78 to 3.1 µg/mL
same,concentration required to kill >99% of bacteria,"[8]; MIC standard strain, illumination, entry 4",1.6 µg/mL
same,MIC (killing concentration),"[8]; vancomycin-resistant S.aureus strains, either lighting condition",below 1.0 µg/mL
same,IC50,[9],1.6 µg/mL
same,MIC,[10],0.01 to 0.1 µg/mL
same,viable bacteria in biofilm,[11]; 50.0 µg/mL (2xMIC under dark),significantly reduced the number of viable bacteria
same,"biofilm eradication, log reduction","[11]; 60.0 µg/mL (77×MIC), fluorescent light",> 5 log
same,CFU counted in biofilm,"[11]; 100 µg/mL, fluorescent light",No CFU were counted
same,viable bacteria in biofilm,"[11]; 1,000 µg/mL",No viable bacteria
same,"biofilm, log reduction of viable bacteria",[12]; 10.0 µg/mL,over 6 log
same,CFU counted in biofilm,[12]; 30.0 µg/mL or higher,No CFU were counted
same,colonies counted (Dilution 5.8 × 10^11),"[13]; first column, PV-10 5.0 µg/mL",0 (0 colony)
same,CFU/mL (Dilution 5.8 × 10^11),"[13]; first column, PV-10 5.0 µg/mL",0 (0 colony) CFU/mL
same,colonies counted (Dilution 5.8 × 10^11),"[13]; first column, PV-10 10 µg/mL",0 (0 colony)
same,CFU/mL (Dilution 5.8 × 10^11),"[13]; first column, PV-10 10 µg/mL",0 (0 colony) CFU/mL
same,colonies counted (Dilution 5.8 × 10^11),"[13]; second column, PV-10 5.0 µg/mL",35 colonies
same,CFU/mL (Dilution 5.8 × 10^11),"[13]; second column, PV-10 5.0 µg/mL",9.4 × 10^10 CFU/mL
same,colonies counted (Dilution 5.8 × 10^11),"[13]; second column, PV-10 10 µg/mL",17 colonies
same,CFU/mL (Dilution 5.8 × 10^11),"[13]; second column, PV-10 10 µg/mL",4.5 × 10^10 CFU/mL
same,log reduction of viable bacteria in air-exposed biofilms,"[13]; spray 5.0 or 10 µg/mL solution, 250 µL twice, fluorescent light 1 h, dilution of 5.8×10^9",4 log
same,selectivity ratio at 1 h,[14]; for Gram-negatives,> 7.9
same,selectivity ratio at 1 h,[14]; for Gram-positives,> 62.5
same,confluency lost,"[15]; 100 µM (97.4 µg/mL), 4 h",~50%
same,state of the monolayer,"[15]; 100 µM, 1 h exposure",intact
same,confluence lost,[15]; 1 h,About 18%
same,confluence lost,[15]; 4 h,over 80%
same,time to complete loss of the cell viability,[15]; 300 µM,≤ 2 h
same,concentration tolerated by Vero cells,[15]; 1 h,100 to 200 µM
same,appearance of solution at acidic pH,[16],rapid clouding of the admixture and clumping
same,toxicological effects,[17],"does not have systemic toxicological effects, mutagenic potential, and female reproductive and development effects"
same,loss of viability,[18],about 80%
same,bactericidal activity,[19],effectively killed
same,susceptibility to RB,[20],susceptible
same,susceptibility to RB,[21],showed resistance
same,MIC,[22],50 µg/mL and > 100 µg/mL
same,concentration tolerated,[23],≥ 100 µg/mL
same,MIC (killing concentration),[24],3.13 to 12.5 µg/mL
same,log reduction of CFU,[25],6 log
same,time to kill,[26],≤ 2 min
same,time to kill,[27],≤ 2 min
same,time to kill,[28],≤ 2 min
same,time required for a 5-log reduction,[29]; 2-times the MIC,40 minutes
same,log reduction of the bacteria,"[29]; 4-times the MIC, in 5 minutes, 2.9 × 10^8 CFU",> 5 log
same,time to kill,[30]; Gram-negative bacteria,5 min
same,time to kill,[30]; Gram-positive bacteria,1 to 2 min
same,log reduction,"[30]; within 2 hours of contact, preliminary studies",6 log
same,concentration not killing the yeast,[31]; dark condition,> 500 µg/mL
same,MBC (to kill >99% of the yeast),[31]; fluorescent light,400 µg/mL
same,necrosis on the surface tissue,"[32]; 200 µM, 1 h",Some necrosis
same,necrosis of the stratum corneum cells,"[32]; 10 and 100 µM, 1 h exposure",did not cause necrosis
"CC(=O)NC[C@H]1CN(c2ccc(N3CCOCC3)c(F)c2)C(=O)O1 [linezolid, reference compound]",biofilm eradication efficacy,"[11]; linezolid at 600 µg/mL, compared with RB 30.0 µg/mL",same level of efficacy
capreomycin,MIC (µg/mL) against M.smegmatis 607™ (wild-type),[1],3.13 µg/mL
same,susceptibility of the RB-resistant strain to the drug,[2]; dark condition,susceptible
same,MIC (µg/mL) against M.smegmatis 607™ (RB mutant),[2]; dark condition,3.13 µg/mL
